# Measurements reported in patent US11850220B2 (Augusta University Research Institute, Inc., priority 2020, dated 2023).
# Legend:
# [1] = tested on: carrageenan-induced paw edema; test: carrageenan-induced paw edema technique (anti-inflammatory); type: in vivo; settings: for Observed (1/property): 1/(% inhibition of edema thickness at 3 h effect); as to Observed (1/property): test concentration or dose not given here; as to Potency (% Inhibition relative to indomethacin at 3 h effect): test concentration or dose not given here
# Description: Anti-inflammatory properties of the ibuprofen-amino acid conjugate (5a-j) and ibuprofen-amino acid-4-aminophenol conjugates 7a-j were studied by the standard carrageenan-induced paw edema technique (Naumov, R. N. et al., Bioorg. Med. Chem. Lett. 2015, 25, 2314-2320; Tiwari, A. D. et al., Org. Biomol. Chem. 2014, 12, 7238-7249).
# [2] = tested on: animal gastric mucosa; test: ulcerogenic liability; type: in vivo; settings: in vivo
# [3] = tested on: acetic acid-induced abdominal writhing; test: acetic acid-induced abdominal writhing technique (peripheral analgesic); type: in vivo; settings: for Potency: Relative to indomethacin; for % Inhibition/protection / Writing reflex ± SEM: in vivo; as to % Inhibition/protection: test concentration or dose not given here; as to Writing reflex ± SEM: test concentration or dose not given here
# [4] = tested on: hot plate; test: hot plate technique (central analgesic); type: in vivo; settings: for Potency: Relative to indomethacin at 120 min.
# [5] = target: COX-1 (Homo sapiens, UniProt P23219); test: COX-1/2 bio-assay: COX-1; type: biochemical; settings: read-out: IC50 ± SD, COX-1
# Chain of COX-1 (P23219 24-599): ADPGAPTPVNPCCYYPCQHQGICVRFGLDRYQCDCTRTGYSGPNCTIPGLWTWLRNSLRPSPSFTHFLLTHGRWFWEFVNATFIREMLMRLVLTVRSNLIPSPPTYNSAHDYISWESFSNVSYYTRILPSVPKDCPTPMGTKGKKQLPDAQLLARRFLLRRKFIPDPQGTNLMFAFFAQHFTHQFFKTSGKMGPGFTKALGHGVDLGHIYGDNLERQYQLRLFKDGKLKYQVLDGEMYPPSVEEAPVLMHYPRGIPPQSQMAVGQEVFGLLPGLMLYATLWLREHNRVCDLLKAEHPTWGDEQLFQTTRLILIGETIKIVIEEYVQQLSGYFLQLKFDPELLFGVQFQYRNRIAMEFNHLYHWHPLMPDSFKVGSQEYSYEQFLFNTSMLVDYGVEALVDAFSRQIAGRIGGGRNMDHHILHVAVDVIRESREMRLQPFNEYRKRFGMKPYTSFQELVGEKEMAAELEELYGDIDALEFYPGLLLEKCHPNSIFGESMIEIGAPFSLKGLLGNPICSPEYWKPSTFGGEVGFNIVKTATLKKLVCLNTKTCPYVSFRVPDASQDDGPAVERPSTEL
# Description: (§1) Cyclooxygenases (COX) are the key enzymes capable of the conversion of arachidonic acid to prostaglandins.
# [6] = target: T1, COX-2 (Homo sapiens, UniProt P35354); test: COX-1/2 bio-assay: COX-2; type: biochemical; settings: for IC50: read-out: IC50 ± SD, COX-2; for SI(COX-2/COX-1): selectivity index COX-2/COX-1
# T1 sequence (P35354 18-604): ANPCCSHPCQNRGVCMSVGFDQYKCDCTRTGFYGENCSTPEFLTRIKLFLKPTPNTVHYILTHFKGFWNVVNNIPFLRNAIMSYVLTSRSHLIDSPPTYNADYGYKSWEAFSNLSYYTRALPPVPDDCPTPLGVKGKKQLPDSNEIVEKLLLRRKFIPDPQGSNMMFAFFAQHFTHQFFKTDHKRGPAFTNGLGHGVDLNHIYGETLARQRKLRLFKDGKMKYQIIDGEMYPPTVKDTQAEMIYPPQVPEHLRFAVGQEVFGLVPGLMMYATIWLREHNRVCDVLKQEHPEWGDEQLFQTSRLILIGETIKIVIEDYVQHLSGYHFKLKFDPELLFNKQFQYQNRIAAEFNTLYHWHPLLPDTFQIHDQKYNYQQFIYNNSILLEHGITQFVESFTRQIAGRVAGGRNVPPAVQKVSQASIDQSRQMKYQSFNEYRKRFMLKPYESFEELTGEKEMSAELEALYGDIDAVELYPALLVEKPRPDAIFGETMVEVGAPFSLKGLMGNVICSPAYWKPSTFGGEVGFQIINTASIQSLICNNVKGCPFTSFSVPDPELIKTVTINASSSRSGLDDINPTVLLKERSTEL
# Description: as §1
# [7] = % inhibition of edema thickness at 3 h effect, Table 7
# [8] = anti-inflammatory property (% inhibition of edema at 3 h), Table 8
SMILES,Observed (1/property) ([1]; Table 7),% inhibition of edema ([1]; 1 h),Mean edema thickness ([1]; 1 h),% inhibition of edema ([1]; 2 h),Mean edema thickness ([1]; 2 h),% inhibition of edema ([1]; 3 h),Mean edema thickness ([1]; 3 h),% inhibition of edema ([1]; 4 h),Mean edema thickness ([1]; 4 h),% inhibition of edema ([1]; 24 h),Mean edema thickness ([1]; 24 h),"Observed property [1, 7]","Observed property [1, 8]",Potency (% Inhibition relative to indomethacin at 3 h effect) [1],% Incidence of ulcer divided by 10 [2],Average of ulcer number [2],Average severity of ulcer [2],Number of animals with ulcer [2],Ulcer index [2],Potency [3],also measured
"CC(C)Cc1ccc(C(C)C(=O)NCC(=O)Nc2ccc(O)cc2)cc1 (stereo not drawn) [Compound 7a, N-(2-((4-Hydroxyphenyl)amino)-2-oxoethyl)-2-(4-isobutylphenyl)propanamide]",0.01316,41%,0.73 ± 0.04 mm,65%,0.53 ± 0.03 mm,76%,0.31 ± 0.02 mm,83%,0.21 ± 0.02 mm,42%,0.11 ± 0.03 mm,76%,76%,95%,0,0,0,0,0,139,% Inhibition/protection [3]: 76.4%; Writing reflex ± SEM [3]: 23.0 ± 0.9; % protection ([4]; After 30 min.): (97.1) %; Latency period ± SEM ([4]; After 30 min.): 4.77 ± 0.07 s; % protection ([4]; After 60 min.): (94.6) %; Latency period ± SEM ([4]; After 60 min.): 4.34 ± 0.04 s; % protection ([4]; After 90 min.): (86.4) %; Latency period ± SEM ([4]; After 90 min.): 4.10 ± 0.02 s; % protection ([4]; After 120 min.): (81.7) %; Latency period ± SEM ([4]; After 120 min.): 3.98 ± 0.11 s; Potency [4]: 144; IC50 [5]: 2.7 ± 0.13 µM; IC50 [6]: 78.3 ± 5.54 µM; SI(COX-2/COX-1) [6]: 29.0; melting point: 175.9 °C
"CC(C)Cc1ccc(C(C)C(=O)N[C@@H](Cc2ccccc2)C(=O)Nc2ccc(O)cc2)cc1 (stereo partly drawn) [Compound 7e, (2S)-N-(4-Hydroxyphenyl)-2-(2-(4-isobutylphenyl)propanamido)-3-phenylpropanamide]",0.01333,38%,0.76 ± 0.05 mm,69%,0.47 ± 0.03 mm,75%,0.32 ± 0.01 mm,77%,0.29 ± 0.03 mm,11%,0.17 ± 0.03 mm,75%,75%,94%,0,0,0,0,0,134,% Inhibition/protection [3]: 73.6%; Writing reflex ± SEM [3]: 25.7 ± 1.0; % protection ([4]; After 30 min.): (78.1) %; Latency period ± SEM ([4]; After 30 min.): 4.31 ± 0.04 s; % protection ([4]; After 60 min.): (104.9) %; Latency period ± SEM ([4]; After 60 min.): 4.57 ± 0.03 s; % protection ([4]; After 90 min.): (136.4) %; Latency period ± SEM ([4]; After 90 min.): 5.20 ± 0.07 s; % protection ([4]; After 120 min.): (144.3) %; Latency period ± SEM ([4]; After 120 min.): 5.35 ± 0.03 s; Potency [4]: 255; IC50 [5]: 13.2 ± 0.65 µM; IC50 [6]: 69.8 ± 4.93 µM; SI(COX-2/COX-1) [6]: 5.3; melting point: 168.7 °C
"CC(C)Cc1ccc(C(C)C(=O)N[C@@H](CC(C)C)C(=O)Nc2ccc(O)cc2)cc1 (stereo partly drawn) [Compound 7g, (2S)-N-(4-Hydroxyphenyl)-2-(2-(4-isobutylphenyl)propanamido)-4-methylpentanamide]",0.01333,30%,0.86 ± 0.03 mm,39%,0.92 ± 0.04 mm,75%,0.33 ± 0.03 mm,48%,0.65 ± 0.03 mm,37%,0.12 ± 0.03 mm,75%,75%,94%,0,0,0,0,0,144,% Inhibition/protection [3]: 79.1%; Writing reflex ± SEM [3]: 20.3 ± 0.9; % protection ([4]; After 30 min.): (36.0) %; Latency period ± SEM ([4]; After 30 min.): 3.29 ± 0.05 s; % protection ([4]; After 60 min.): (39.0) %; Latency period ± SEM ([4]; After 60 min.): 3.10 ± 0.01 s; % protection ([4]; After 90 min.): (43.6) %; Latency period ± SEM ([4]; After 90 min.): 3.16 ± 0.06 s; % protection ([4]; After 120 min.): (79.0) %; Latency period ± SEM ([4]; After 120 min.): 3.92 ± 0.08 s; Potency [4]: 140; IC50 [5]: 2.65 ± 0.13 µM; IC50 [6]: 144 ± 11.2 µM; SI(COX-2/COX-1) [6]: 54.3; melting point: 230.5 °C
